According to US9745317B2, “Heterocyclic compounds and their use as dopamine D1 ligands” (PFIZER INC., priority 2014, dated 2017):
Structures can show the parent of a compound that is named as a salt.

Each compound was assayed against Human D1 Receptor (Homo sapiens (Human), UniProt P21728) (assay: Human D1 receptor binding assay ([^3H]-SCH23390 competition binding)). Conditions: over-expressing LTK human cell lines; 0.5 nM [^3H]-SCH23390; 30 min at 37° C.; footnote a = single determination, b = geometric mean of ≧5 determinations; read-out: Human D1 Receptor Binding, Ki (nM); Geometric mean of 2-4 determinations (unless otherwise indicated).
Procedure: The affinity of the compounds described herein was determined by competition binding assays similar to those described in Ryman-Rasmussen et al., “Differential activation of adenylate cyclase and receptor internalization by novel dopamine D1 receptor agonists”, Molecular Pharmacology 68(4):1039-1048 (2005).
D1 binding assays were performed using over-expressing LTK human cell lines. […] These ligand and tissue concentrations were used in time course studies to determine linearity and equilibrium conditions for binding. Binding was at equilibrium with the specified amount of tissue in 30 minutes at 37° C. […] The pellet was resuspended in assay buffer [50 mM Tris (pH 7.4@ RT) containing 4 mM MgSO4 and 0.5 mM EDTA]. […] Non-specific binding was determined by radioligand binding in the presence of a saturating concentration of (+)-Butaclamol (10 μM), a D1 antagonist. After a 30 minute incubation period at 37° C., assay samples were rapidly filtered through Unifilter-96 GF/B PEI-coated filter plates and rinsed with 50 mM Tris buffer (pH 7.4 at 4° C.). […] The IC50 value (concentration at which 50% inhibition of specific binding occurs) was calculated by linear regression of the concentration-response data in Microsoft Excel. Ki values were calculated according to the Cheng-Prusoff equation: […]

Human D1 Receptor, sequence (P21728 whole entry): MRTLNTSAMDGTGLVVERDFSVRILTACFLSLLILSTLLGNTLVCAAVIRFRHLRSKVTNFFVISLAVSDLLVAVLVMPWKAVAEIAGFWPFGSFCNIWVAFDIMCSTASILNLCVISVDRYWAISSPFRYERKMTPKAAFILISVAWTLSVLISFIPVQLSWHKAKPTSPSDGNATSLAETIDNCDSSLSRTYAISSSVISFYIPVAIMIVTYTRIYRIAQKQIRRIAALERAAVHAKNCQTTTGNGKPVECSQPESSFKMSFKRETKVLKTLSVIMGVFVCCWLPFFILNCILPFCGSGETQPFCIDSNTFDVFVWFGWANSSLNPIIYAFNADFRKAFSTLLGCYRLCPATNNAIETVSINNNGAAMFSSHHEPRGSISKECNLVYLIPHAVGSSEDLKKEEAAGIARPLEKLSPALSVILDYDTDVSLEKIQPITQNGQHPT

How did the Ki turn out when Cc1cc(Oc2nccc3c2CCN3)ccc1-c1c(C)ncc(=O)n1C (single isomer, unassigned) [Example 25, (−)-6-[4-(2,3-dihydro-1H-pyrrolo[3,2-c]pyridin-4-yloxy)-2-methylphenyl]-1,5-dimethylpyrazin-2(1H)-one] was run?
The Ki was 75.8 nM.

With Cc1cc(Oc2nccc3c2CCN3)ccc1-c1c(C)n[nH]c(=O)c1C (single isomer, unassigned; ent-1) [Example 9, 5-[4-(2,3-Dihydro-1H-pyrrolo[3,2-c]pyridin-4-yloxy)-2-methylphenyl]-4,6-dimethylpyridazin-3(2H)-one, ENT-1] as the compound, how does the Ki read?
Its Ki is 35.6 nM.

Cc1cc(Oc2nccc3c2CCN3)ccc1-c1c(C)n[nH]c(=O)c1C (single isomer, unassigned; ent-2) [Example 10, 5-[4-(2,3-Dihydro-1H-pyrrolo[3,2-c]pyridin-4-yloxy)-2-methylphenyl]-4,6-dimethylpyridazin-3(2H)-one, ENT-2] was tested. Which Ki did it give?
Its Ki is 50.5 nM.

How did the Ki turn out when Cc1cc(Oc2nccc3c2CCO3)ccc1-c1c(C)ncc(=O)n1C (single isomer, unassigned) [Example 22, (−)-6-[4-(2,3-dihydrofuro[3,2-c]pyridin-4-yloxy)-2-methylphenyl]-1,5-dimethylpyrazin-2(1H)-one] was run?
Its Ki is 202 nM.

Which Ki does the source give for Cc1c(-c2ccc(Oc3ncnc4c3CCN4)cc2)n(C)c(=O)[nH]c1=O [Example 27, 6-[4-(6,7-dihydro-5H-pyrrolo[2,3-d]pyrimidin-4-yloxy)phenyl]-1,5-dimethylpyrimidine-2,4(1H,3H)-dione] here?
Its Ki is 44.4 nM.

How did the Ki turn out when Cc1cc(Oc2nccc3c2CCO3)ccc1-c1c(C)ncc(=O)n1C (single isomer, unassigned) [Example 23, (+)-6-[4-(2,3-dihydrofuro[3,2-c]pyridin-4-yloxy)-2-methylphenyl]-1,5-dimethylpyrazin-2(1H)-one] was run?
The Ki was 706 nM.

With Cc1cc(Oc2nccc3c2CCO3)ccc1-c1c(C)n[nH]c(=O)c1C [Example 5, 5-[4-(2,3-Dihydrofuro[3,2-c]pyridin-4-yloxy)-2-methylphenyl]-4,6-dimethylpyridazin-3(2H)-one] as the compound, how does the Ki read?
Its Ki is 14 nM.

Which Ki does the source give for Cc1cc(Oc2nccc3c2CCN3)ccc1-c1c(C)ncc(=O)n1C (single isomer, unassigned) [Example 24, (+)-6-[4-(2,3-dihydro-1H-pyrrolo[3,2-c]pyridin-4-yloxy)-2-methylphenyl]-1,5-dimethylpyrazin-2(1H)-one] here?
The Ki was 201 nM.

For Cc1cc(Oc2nccc3c2CCO3)ccc1-c1c(C)n[nH]c(=O)c1C [Example 7, (−)-5-[4-(2,3-Dihydrofuro[3,2-c]pyridin-4-yloxy)-2-methylphenyl]-4,6-dimethylpyridazin-3(2H)-one], which Ki is on record?
The Ki was 12.7 nM.

Which Ki does the source give for Cc1cc(Oc2nccc3c2CCO3)ccc1-c1c(C)ncc2nccn12 [Example 18, 5-[4-(2,3-dihydrofuro[3,2-c]pyridin-4-yloxy)-2-methylphenyl]-6-methylimidazo[1,2-a]pyrazine] here?
Its Ki is 52.1 nM.

Cc1cc(Oc2nccc3c2CCO3)ccc1-c1c(C)ncc(=O)n1C [Example 21, 6-[4-(2,3-dihydrofuro[3,2-c]pyridin-4-yloxy)-2-methylphenyl]-1,5-dimethylpyrazin-2(1H)-one] was tested. Which Ki did it give?
Its Ki is 82.5 nM.

With Cc1n[nH]c(=O)c(C)c1-c1ccc(Oc2nccc3c2CCO3)cc1C#N [Example 26, 5-(2,3-dihydrofuro[3,2-c]pyridin-4-yloxy)-2-(3,5-dimethyl-6-oxo-1,6-dihydropyridazin-4-yl)benzonitrile] as the compound, how does the Ki read?
The Ki was 162 nM.

For Cc1cc(Oc2nccc3c2C(O)CO3)ccc1-c1c(C)n[nH]c(=O)c1C (stereo not drawn) [Example 16, 5-{4-[(3-Hydroxy-2,3-dihydrofuro[3,2-c]pyridin-4-yl)oxy]-2-methylphenyl}-4,6-dimethylpyridazin-3(2H)-one], which Ki is on record?
Its Ki is 4.8 nM.

For Cc1c(-c2ccc(Oc3nccc4c3CCO4)cc2)n(C)c(=O)[nH]c1=O [Example 13, 6-[4-(2,3-Dihydrofuro[3,2-c]pyridin-4-yloxy)phenyl]-1,5-dimethylpyrimidine-2,4(1H,3H)-dione, trifluoroacetate salt], which Ki is on record?
Its Ki is 46.1 nM.

How did the Ki turn out when Cc1cc(Oc2ncnc3c2CCN3)ccc1-c1c(C)ncnc1C [Example 19, 4-[4-(4,6-dimethylpyrimidin-5-yl)-3-methylphenoxy]-6,7-dihydro-5H-pyrrolo[2,3-d]pyrimidine] was run?
Its Ki is 156 nM.

With Cc1c(-c2ccc(Oc3nccc4c3CCN4)cc2)n(C)c(=O)[nH]c1=O [Example 12, 6-[4-(2,3-Dihydro-1H-pyrrolo[3,2-c]pyridin-4-yloxy)phenyl]-1,5-dimethylpyrimidine-2,4(1H,3H)-dione] as the compound, how does the Ki read?
The Ki was 11.1 nM.

Which Ki does the source give for Cc1cc(Oc2nccc3c2CCN3)ccc1-c1c(C)n[nH]c(=O)c1C [Example 8, 5-[4-(2,3-Dihydro-1H-pyrrolo[3,2-c]pyridin-4-yloxy)-2-methylphenyl]-4,6-dimethylpyridazin-3(2H)-one] here?
Its Ki is 8.4 nM.

Which Ki does the source give for Cc1cc(Oc2nccc3c2CCO3)ccc1-c1c(C)n[nH]c(=O)c1C [Example 6, (+)-5-[4-(2,3-Dihydrofuro[3,2-c]pyridin-4-yloxy)-2-methylphenyl]-4,6-dimethylpyridazin-3(2H)-one] here?
Its Ki is 12.6 nM.

Which Ki does the source give for Cc1cc(Oc2ncnc3c2CCC3)ccc1-c1c(C)ncnc1C [Example 20, 4-[4-(4,6-dimethylpyrimidin-5-yl)-3-methylphenoxy]-6,7-dihydro-5H-cyclopenta[d]pyrimidine] here?
Its Ki is 446 nM.

How did the Ki turn out when Cc1c(-c2ccc(Oc3ncnc4c3CCC4)cc2)n(C)c(=O)[nH]c1=O [Example 28, 6-[4-(6,7-dihydro-5H-cyclopenta[d]pyrimidin-4-yloxy)phenyl]-1,5-dimethylpyrimidine-2,4(1H,3H)-dione] was run?
The Ki was 202 nM.

Which Ki does the source give for Cc1cc(Oc2nccc3c2CCO3)ccc1-c1c(C)ncnc1C [Example 1, 4-[4-(4,6-Dimethylpyrimidin-5-yl)-3-methylphenoxy]-2,3-dihydrofuro[3,2-c]pyridine] here?
The Ki was 76.8 nM.

Same assay, conditions: read-out: Human D1 Receptor Binding, Ki (nM); Geometric mean of 2-4 determinations (unless otherwise indicated)

Which Ki does the source give for Cc1cc(Oc2nccc3c2CCCN3)ccc1-c1c(C)n[nH]c(=O)c1C [Example 15, 4,6-Dimethyl-5-[2-methyl-4-(1,2,3,4-tetrahydro-1,6-naphthyridin-5-yloxy)phenyl]pyridazin-3(2H)-one] here?
The Ki was 18.1 nM.

With Cc1cc(Oc2nccc3c2CCCO3)ccc1-c1c(C)n[nH]c(=O)c1C [Example 14, 5-[4-(3,4-Dihydro-2H-pyrano[3,2-c]pyridin-5-yloxy)-2-methylphenyl]-4,6-dimethylpyridazin-3(2H)-one] as the compound, how does the Ki read?
Its Ki is 70.3 nM.

For Cc1n[nH]c(=O)c(C)c1-c1ccc(Oc2ncnc3c2CCN3)cc1 [Example 11, 5-[4-(6,7-Dihydro-5H-pyrrolo[2,3-d]pyrimidin-4-yloxy)phenyl]-4,6-dimethylpyridazin-3(2H)-one], which Ki is on record?
Its Ki is 60.4 nM.

For Cc1cc(Oc2nccc3c2C(O)CO3)ccc1-c1c(C)ncnc1C (stereo not drawn) [Example 17, 4-[4-(4,6-Dimethylpyrimidin-5-yl)-3-methylphenoxy]-2,3-dihydrofuro[3,2-c]pyridin-3-ol], which Ki is on record?
The Ki was 28.9 nM.

Cc1n[nH]c(=O)c(C)c1-c1ccc(Oc2nccc3c2CCN3)cc1 [Example 4, 5-[4-(2,3-Dihydro-1H-pyrrolo[3,2-c]pyridin-4-yloxy)phenyl]-4,6-dimethylpyridazin-3(2H)-one] was tested. Which Ki did it give?
The Ki was 14 nM.

Which Ki does the source give for Cc1cc(Oc2nccc3c2CCN3)ccc1-c1c(C)ncnc1C [Example 2, 4-[4-(4,6-Dimethylpyrimidin-5-yl)-3-methylphenoxy]-2,3-dihydro-1H-pyrrolo[3,2-c]pyridine] here?
Its Ki is 78.1 nM.
